Assay results published in US6750228B1, “Aromatic sulfone hydroxamic acid metalloprotease inhibitor” (priority 1997, dated 2004).
Read-outs that look alike come from different tables or passages of the source.

Columns and labels:
Test in all cases: biochemical
MMP-13 = target: T1, MMP-13 (Homo sapiens, UniProt P45452)
T1 construct: made in house; host or cells: baculovirus / insect cells
Procedure, shortened: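 APMA- or trypsin-activated enzymes were preincubated with inhibitor for 5 min at room temperature, then the fluorogenic substrate MCA-Pro-Leu-Gly-Leu-Dpa-Ala-Arg-NH2 was added to a final 4 μM.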

MMP-1 = target: T2, MMP-1 (Homo sapiens, UniProt P03956); conditions: read-out: MMP-1 IC50
T2 construct: made in house; host or cells: transfected HT-1080 cells (provided by Dr. Harold Welgus, Washington University)
T2 sequence (P03956 100-469): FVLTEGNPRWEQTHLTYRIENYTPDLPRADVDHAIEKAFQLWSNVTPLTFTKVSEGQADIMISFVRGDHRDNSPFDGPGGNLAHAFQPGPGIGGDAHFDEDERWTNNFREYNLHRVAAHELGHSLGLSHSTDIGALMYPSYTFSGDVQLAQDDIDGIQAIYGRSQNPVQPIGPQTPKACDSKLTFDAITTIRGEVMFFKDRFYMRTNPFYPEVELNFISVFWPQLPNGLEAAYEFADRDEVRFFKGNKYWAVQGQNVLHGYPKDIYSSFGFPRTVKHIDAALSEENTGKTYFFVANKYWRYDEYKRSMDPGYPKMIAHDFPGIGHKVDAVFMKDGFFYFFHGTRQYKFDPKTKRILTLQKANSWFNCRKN
Procedure, shortened: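 Substrate MCA-PLGL-Dpa-AR-NH2 at 4 μM final; pH 7.5 Tris/NaCl/CaCl2 buffer with 0.05% polyethyleneglycol lauryl ether, 1% DMSO, room temperature. MMP-1 was expressed in transfected HT-1080 cells and APMA-activated.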

MMP-2 = target: T3, MMP-2 (Homo sapiens, UniProt P08253); conditions: read-out: MMP-2 IC50
T3 construct: made in house; provided by Dr. Gregory Goldberg, Washington University
T3 sequence (P08253 110-660): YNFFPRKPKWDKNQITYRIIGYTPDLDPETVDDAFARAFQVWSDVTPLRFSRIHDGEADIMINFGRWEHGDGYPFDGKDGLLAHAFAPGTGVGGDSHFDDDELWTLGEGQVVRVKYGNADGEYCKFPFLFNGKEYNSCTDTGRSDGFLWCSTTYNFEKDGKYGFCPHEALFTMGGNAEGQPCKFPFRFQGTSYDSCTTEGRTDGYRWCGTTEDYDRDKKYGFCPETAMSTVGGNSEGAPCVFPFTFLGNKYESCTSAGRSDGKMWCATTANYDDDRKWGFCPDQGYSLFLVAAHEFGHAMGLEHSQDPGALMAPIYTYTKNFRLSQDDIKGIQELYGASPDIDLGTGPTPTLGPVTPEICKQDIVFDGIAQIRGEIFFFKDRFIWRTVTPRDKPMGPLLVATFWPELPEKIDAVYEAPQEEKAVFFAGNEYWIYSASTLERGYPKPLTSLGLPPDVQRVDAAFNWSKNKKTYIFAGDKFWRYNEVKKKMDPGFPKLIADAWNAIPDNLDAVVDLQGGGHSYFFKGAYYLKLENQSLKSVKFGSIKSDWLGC
Procedure, shortened: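 APMA- or trypsin-activated human MMPs (MMP-1 from transfected HT-1080 cells, MMP-2 from transfected cells) preincubated with inhibitor in 1% DMSO at room temperature, then 4 μM MCA-Pro-Leu-Gly-Leu-Dpa-Ala-Arg-NH2 added in Tris/NaCl/CaCl2 buffer pH 7.5. IC50 from fluorescence reduction versus inhibitor concentration.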

[1] = recombinant human MMP-13, MCA peptide substrate 4 μM, pH 7.5, room temperature, read-out: MMP-13 IC50
[2] = recombinant human MMP-1, MCA peptide substrate 4 μM, pH 7.5, room temperature
[3] = recombinant human MMP-2, MCA peptide substrate 4 μM, pH 7.5, room temperature

SMILES	IC50 (MMP-13; MMP-13 IC50 (nM), recombinant human MMP-13, MCA peptide substrate 4 μM, pH 7.5, room temperature) [nM]	IC50 (MMP-1) [nM]	IC50 (MMP-2) [nM]	IC50 (MMP-13; [1]) [nM]	IC50 (MMP-1; [2]) [nM]	IC50 (MMP-2; [3]) [nM]	IC50 (MMP-13; read-out: MMP-13 IC50) [nM]
O=C(C1CCN(c2ccc(S(=O)(=O)C3(C(=O)NO)CCOCC3)cc2)CC1)N1CCN(c2ccncc2)CC1 [Example 37]	30	> 10000	1750				
O=C(CCCCN1CCNCC1)N1CCC(C(=O)NO)(S(=O)(=O)c2ccc(Oc3ccc(C(F)(F)F)cc3)cc2)CC1 [Example 343]				1.7	> 10000	0.8	
N#Cc1ccc(S(=O)(=O)N2CCN(c3ccc(S(=O)(=O)C4(C(=O)NO)CCOCC4)cc3)CC2)cc1 [Example 690]				7.3	> 10000	41.8	
COCCN1CCN(CC(=O)N2CCC(C(=O)NO)(S(=O)(=O)c3ccc(N4CCC(C(=O)N5CC(C)CC(C)C5)CC4)cc3)CC2)CC1 (stereo not drawn) [Example 307]				40	> 10000	> 10000	
O=C(NO)C1(S(=O)(=O)c2ccc(N3CCC(Oc4ccc([N+](=O)[O-])c(F)c4)CC3)cc2)CCOCC1 [Example 548]				40	> 10000	800	
O=C(NCc1ccccc1)OC1CCN(c2ccc(S(=O)(=O)C3(C(=O)NO)CCOCC3)cc2)CC1 [Example 520]				22.5	> 10000	250	
O=C(NO)C1(S(=O)(=O)c2ccc(N3CCCCCC3)cc2)CCOCC1 [Example 212]				160	> 10000	240	
O=C(NO)C1(S(=O)(=O)c2ccc(Oc3ccc(C(F)(F)F)cc3)cc2)CCN(c2ncccc2[N+](=O)[O-])CC1 [Example 374]				3.3	> 10000	4	
CCCCCC(=O)C1CCN(c2ccc(S(=O)(=O)C3(C(=O)NO)CCOCC3)cc2)CC1 [Example 755]				2.2	> 10000	20	
O=C(c1ccc(C(F)(F)F)cc1)C1CCN(c2ccc(S(=O)(=O)C3(C(=O)NO)CCOCC3)cc2)CC1 [Example 729]				14.8	> 10000	240	
CC(C)N1CCC(C(=O)NO)(S(=O)(=O)c2ccc(OC(F)(F)F)cc2)CC1 [Example 439]				1070	> 10000	1600	
CN(C)S(=O)(=O)N(C)C1CCN(c2ccc(S(=O)(=O)C3(C(=O)NO)CCOCC3)cc2)CC1 [Example 832]				18.1	> 10000	2000	
O=C(NO)C1(S(=O)(=O)c2ccc(N3CCN(S(=O)(=O)c4ccccc4C(F)(F)F)CC3)cc2)CCOCC1 [Example 675]				13	6000	88	
O=C(CCCCNCc1ccccn1)N1CCC(C(=O)NO)(S(=O)(=O)c2ccc(Oc3ccc(C(F)(F)F)cc3)cc2)CC1 [Example 336]				1	> 10000	< 0.1	
O=C(NO)C1(S(=O)(=O)c2ccc(Oc3ccc(OC(F)(F)F)cc3)cc2)CCN(S(=O)(=O)c2cccc(C(F)(F)F)c2)CC1 [Example 196]				1.6	> 10000	< 0.1	
CCN(CCCCC(=O)N1CCC(C(=O)NO)(S(=O)(=O)c2ccc(Oc3ccc(C(F)(F)F)cc3)cc2)CC1)Cc1ccncc1 [Example 344]				2.9	> 10000	0.65	
CCCCOC1CCN(c2ccc(S(=O)(=O)C3(C(=O)NO)CCNCC3)cc2)CC1 [Example 443]				90	> 10000	2200	
O=C(CNCCO)N1CCC(C(=O)NO)(S(=O)(=O)c2ccc(Oc3ccc(C(F)(F)F)cc3)cc2)CC1 [Example 321]				0.5	> 10000	0.3	
O=C(NO)C1(S(=O)(=O)c2ccc(N3CCC(OCc4ccc(F)cc4F)CC3)cc2)CCOCC1 [Example 558]				4.5	> 10000	66.4	

SMILES	IC50 (MMP-13; MMP-13 IC50 (nM), recombinant human MMP-13, MCA peptide substrate 4 μM, pH 7.5, room temperature) [nM]	IC50 (MMP-1) [nM]	IC50 (MMP-2) [nM]	IC50 (MMP-13; [1]) [nM]	IC50 (MMP-1; [2]) [nM]	IC50 (MMP-2; [3]) [nM]	IC50 (MMP-13; read-out: MMP-13 IC50) [nM]
O=C(C1CCN(c2ccc(S(=O)(=O)C3(C(=O)NO)CCOCC3)cc2)CC1)N1CCN(c2cccc(Cl)c2)CC1 [Example 43]		> 10000	5000				17.9
CCCCC(=O)N1CCN(c2ccc(S(=O)(=O)C3(C(=O)NO)CCOCC3)cc2)CC1 [Example 591]				70	> 10000	730	
O=C(NO)C1(S(=O)(=O)c2ccc(OC3CCC(OCc4cccc(OC(F)(F)F)c4)C3)cc2)CCOCC1 (stereo not drawn) [Example 714]				28.8	> 10000	420	
O=C(NO)C1(S(=O)(=O)c2ccc(N3CCCN(S(=O)(=O)c4ccc(OC(F)(F)F)cc4)CC3)cc2)CCOCC1 [Example 699]				50	> 10000	455	
O=C(CN1CCNCC1)N1CCC(C(=O)NO)(S(=O)(=O)c2ccc(Oc3ccc(C(F)(F)F)cc3)cc2)CC1 [Example 328]				0.35	> 10000	0.4	
O=C(NO)C1(S(=O)(=O)c2ccc(N3CCCCC3)cc2)CCOCC1 [Example 209]				50	> 10000	130	
O=C(NO)C1(S(=O)(=O)c2ccc(N3CCC(SCc4ccccc4)CC3)cc2)CCOCC1 [Example 707]				2.3	> 10000	9	
O=C(CCCCN1CCCC1)N1CCC(C(=O)NO)(S(=O)(=O)c2ccc(Oc3ccc(C(F)(F)F)cc3)cc2)CC1 [Example 341]				0.6	> 10000	0.2	
CCN(CC(=O)N1CCC(C(=O)NO)(S(=O)(=O)c2ccc(Oc3ccc(C(F)(F)F)cc3)cc2)CC1)Cc1ccncc1 [Example 329]				0.9	> 10000	0.4	
CN(C)c1cccc(NC(=O)C2CCN(c3ccc(S(=O)(=O)C4(C(=O)NO)CCOCC4)cc3)CC2)c1 [Example 77]				75	> 10000	3400	
O=C(NO)C1(S(=O)(=O)c2ccc(N3CCC(Oc4c(Cl)cc(C(F)(F)F)cc4Cl)CC3)cc2)CCOCC1 [Example 570]				290	> 10000	> 10000	
O=C(c1ccc2ccccc2c1)C1CCN(c2ccc(S(=O)(=O)C3(C(=O)NO)CCN(C4CC4)CC3)cc2)CC1 [Example 393]				4.5	> 10000	427	
CCNCC(=O)N1CCC(C(=O)NO)(S(=O)(=O)c2ccc(N3CCC(C(=O)N4CC(C)CC(C)C4)CC3)cc2)CC1 (stereo not drawn) [Example 277]				70	> 10000	> 10000	
COCCN1CCC(C(=O)NO)(S(=O)(=O)c2ccc(N3CCC(C(=O)N(C)c4ccccc4)CC3)cc2)CC1 [Example 244, 1-[4-[[4-[(Hydroxyamino)carbonyl]-1-(2-methoxyethyl)-4-piperidinyl]-sulfonyl]phenyl]-N-methyl-N-phenyl-4-piperidinecarboxamide, Monohydrate]				67.4	> 10000	4400	
O=C(NO)C1(S(=O)(=O)c2ccc(N3CCC(OCc4ccc(F)c(C(F)(F)F)c4)CC3)cc2)CCN(C2CC2)CC1 [Example 408]				25.1	> 10000	800	
O=C(Nc1cccc(F)c1)C1CCN(c2ccc(S(=O)(=O)C3(C(=O)NO)CCOCC3)cc2)CC1 [Example 71]				7.7	> 10000	270	
O=C(NO)C1(S(=O)(=O)c2ccc(N3CCC(c4ccccc4C(F)(F)F)CC3)cc2)CCOCC1 [Example 207]				28.8	> 10000	900	
CS(=O)(=O)N1CCCN(C2CCN(c3ccc(S(=O)(=O)C4(C(=O)NO)CCOCC4)cc3)CC2)CC1 [Example 815]				140	> 10000	1400	
O=C(NO)C1(S(=O)(=O)c2ccc(N3CC[C@@H](OCc4ccc(OC(F)(F)F)cc4)C3)cc2)CCOCC1 [Example 467]				27	> 10000	140	
